Read-outs that look alike come from different tables or passages of the source.

The results in this text go back to patent publication US20250228239A1, “MOLECULES HAVING PESTICIDAL UTILITY, AND INTERMEDIATES, COMPOSITIONS, AND PROCESSES, RELATED THERETO” (priority 2024, published 2025).

In experiment [1] the test system is Cabbage Looper (Trichoplusia ni, TRIPNI). The experiment is described as follows: Bioassays on Cabbage Looper (CL), 128-well diet tray assay. The experiment is classed as in vivo. The conditions noted are these: Trichoplusia ni. An outline of the steps:
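Diet tray, 2nd instar, 1–5 larvae/well; 50 μg/cm^2 compound surface-applied (acetone:water 90:10), dried; 8 wells/treatment; 25° C, 14:10 L:D, 5–7 d; % mortality, mean of 8 wells.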

The test system of experiment [2] is Beet Armyworm (Spodoptera exigua, LAPHEG). The experiment in a line: Bioassays on Beet Armyworm (BAW), 128-well diet tray assay. Type of experiment: in vivo. The conditions noted are these: Spodoptera exigua. In outline:
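Percent larval mortality, averaged across eight wells, scored after five to seven days at 25° C. under 14:10 light-dark. Each well held one to five second instars feeding on diet dosed at 50 μg/cm^2 with compound from 90:10 acetone-water, solvent dried off.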

The mark [3] stands for this setting: Cabbage Looper, Table ABC / ABC-DP rating, read-out: CL rating.
Setting [4] is: Beet Armyworm, Table ABC / ABC-DP rating, read-out: BAW rating.
Where [5] appears, read: Cabbage Looper, rating class, read-out: CL.
Where [6] appears, read: Beet Armyworm, rating class, read-out: BAW.
The mark [7] stands for this setting: Table ABC: Biological Results, species CL, read-out: CL.
Where [8] appears, read: Table ABC: Biological Results, species BAW, read-out: BAW.

As to `CC(C)NC(=S)NNC(=O)c1cc(NC(=O)[C@H]2[C@H](c3cc(Cl)cc(Cl)c3)C2(Cl)Cl)ccc1Cl` (relative stereo) [F2540, trans-2,2-Dichloro-N-(4-chloro-3-(2-(isopropylcarbamothioyl)hydrazine-1-carbonyl)phenyl)-3-(3,5-dichlorophenyl)cyclopropane-1-carboxamide], the pest or weed control at 50 µg/cm2 in experiment [1] (setting [3]) and in experiment [2] (setting [4]) was 50 to 100% throughout.
Turning to `CN(NC(=O)c1cc(NC(=O)[C@H]2[C@H](c3cc(Cl)cc(Cl)c3)C2(Cl)Cl)ccc1Cl)c1ccccn1` (relative stereo) [F2503, trans-2,2-Dichloro-N-(4-chloro-3-(2-methyl-2-(pyridin-2-yl)hydrazine-1-carbonyl)phenyl)-3-(3,5-dichlorophenyl)cyclopropane-1-carboxamide], the pest or weed control at 50 µg/cm2 in experiment [1] (setting [3]) and in experiment [2] (setting [4]) was 50 to 100% in each case.
With `CC(=O)Nc1cc(NC(=O)c2cc(NC(=O)[C@H]3[C@H](c4ccc(F)c(C(F)(F)F)c4)C3(Cl)Cl)cc(C)c2Cl)c(F)cc1F` [F1548, N-(5-Acetamido-2,4-difluorophenyl)-2-chloro-5-((1R,3R)-2,2-dichloro-3-(4-fluoro-3-(trifluoromethyl)phenyl)cyclopropane-1-carboxamido)-3-methylbenzamide], the pest or weed control at 50 µg/cm2 in experiment [1] (setting [5]) and in experiment [2] (setting [6]) was 50 to 100% each time.
For the molecule `CCOC(C)C(=O)N(C)c1c(F)ccc(NC(=O)c2cc(NC(=O)[C@H]3[C@H](c4ccc(Cl)c(Cl)c4)C3(Cl)Cl)ccc2Cl)c1F` (stereo partly drawn) [F1616, 2-Chloro-5-((1R,3R)-2,2-dichloro-3-(3,4-dichlorophenyl)cyclopropane-1-carboxamido)-N-(3-(2-ethoxy-N-methylpropanamido)-2,4-difluorophenyl)benzamide], the pest or weed control at 50 µg/cm2 in experiment [1] (setting [5]) and in experiment [2] (setting [6]) was 50 to 100% each time.
On to `O=C(Nc1cc(F)c(NC(=O)C(Cl)(Cl)Cl)c(F)c1)c1cc(NC(=O)[C@H]2[C@H](c3ccc(Cl)c(Cl)c3)C2(Cl)Cl)ccc1Cl` (relative stereo) [F1146, trans-2-Chloro-5-(2,2-dichloro-3-(3,4-dichlorophenyl)cyclopropane-1-carboxamido)-N-(3,5-difluoro-4-(2,2,2-trichloroacetamido)phenyl)benzamide], for which the pest or weed control at 50 µg/cm2 in experiment [1] (setting [7]) and in experiment [2] (setting [8]) was 50 to 100% each time.
`CC(=O)Nc1ccc(F)c(NC(=O)c2cc(NC(=O)[C@H]3[C@H](c4ccc(Cl)c(Cl)c4)C3(Cl)Cl)cc(F)c2Cl)c1F` [F1522, N-(3-Acetamido-2,6-difluorophenyl)-2-chloro-5-((1R,3R)-2,2-dichloro-3-(3,4-dichlorophenyl)cyclopropane-1-carboxamido)-3-fluorobenzamide]: the pest or weed control at 50 µg/cm2 in experiment [1] (setting [5]) and in experiment [2] (setting [6]) was 50 to 100% in each case.
In the case of `CC(=O)Nc1cc(NC(=O)c2cc(NC(=O)[C@H]3[C@H](c4ccc(F)c(C(F)(F)F)c4)C3(Cl)Cl)ccc2Cl)c(F)cc1F` [F1539, N-(5-Acetamido-2,4-difluorophenyl)-2-chloro-5-((1R,3R)-2,2-dichloro-3-(4-fluoro-3-(trifluoromethyl)phenyl)cyclopropane-1-carboxamido)benzamide], the pest or weed control at 50 µg/cm2 in experiment [1] (setting [5]) and in experiment [2] (setting [6]) was 50 to 100% in each case.
As to `Nc1c(F)ccc(NC(=O)c2cc(NC(=O)[C@H]3[C@H](c4cc(F)cc(Br)c4F)C3(Cl)Cl)ccc2Cl)c1F` (relative stereo) [F1098, trans-N-(3-Amino-2,4-difluorophenyl)-5-(3-(3-bromo-2,5-difluorophenyl)-2,2-dichlorocyclopropane-1-carboxamido)-2-chlorobenzamide], the pest or weed control at 50 µg/cm2 in experiment [1] (setting [7]) and in experiment [2] (setting [8]) was 50 to 100% in each case.
For `O=C(Nc1ccc(F)cc1)c1cc(NC(=O)[C@H]2[C@H](c3ccc(F)c(Cl)c3)C2(Cl)Cl)cc(Cl)c1F` (relative stereo) [F1195, trans-3-Chloro-5-(2,2-dichloro-3-(3-chloro-4-fluorophenyl)cyclopropane-1-carboxamido)-2-fluoro-N-(4-fluorophenyl)benzamide], the pest or weed control at 50 µg/cm2 in experiment [1] (setting [7]) and in experiment [2] (setting [8]) was 50 to 100% in each case.
With `O=C(Nc1cc(NC(=O)C(F)(F)F)c(F)cc1F)c1cc(NC(=O)[C@H]2[C@H](c3ccc(F)c(C(F)(F)F)c3)C2(Cl)Cl)cc(F)c1F` [F1584, 5-((1R,3R)-2,2-Dichloro-3-(4-fluoro-3-(trifluoromethyl)phenyl)cyclopropane-1-carboxamido)-N-(2,4-difluoro-5-(2,2,2-trifluoroacetamido)phenyl)-2,3-difluorobenzamide], the pest or weed control at 50 µg/cm2 in experiment [1] (setting [5]) and in experiment [2] (setting [6]) was 50 to 100% in each case.
Take `O=C(Nc1ccc(F)c(NC(=O)C2(COC(F)(F)F)CC2)c1F)c1cc(NC(=O)[C@H]2[C@H](c3ccc(F)c(C(F)(F)F)c3)C2(Cl)Cl)ccc1Cl` [F1821, 2-Chloro-5-((1R,3R)-2,2-dichloro-3-(4-fluoro-3-(trifluoromethyl)phenyl)cyclopropane-1-carboxamido)-N-(2,4-difluoro-3-(1-((trifluoromethoxy)methyl)cyclopropane-1-carboxamido)phenyl)benzamide]: the pest or weed control at 50 µg/cm2 in experiment [1] (setting [3]) and in experiment [2] (setting [4]) was 50 to 100% each time.
With `Nc1c(F)cccc1NC(=O)c1cc(NC(=O)[C@H]2[C@H](c3ccc(F)c(Cl)c3)C2(Cl)Cl)ccc1Cl` [F1133, N-(2-Amino-3-fluorophenyl)-2-chloro-5-((1R,3R)-2,2-dichloro-3-(3-chloro-4-fluorophenyl)cyclopropane-1-carboxamido)benzamide], the pest or weed control at 50 µg/cm2 in experiment [1] (setting [7]) and in experiment [2] (setting [8]) was 50 to 100% each time.
For the molecule `O=C(Nc1c(F)cc(NC(=O)C(Cl)Cl)cc1F)c1cc(NC(=O)[C@H]2[C@H](c3ccc(Cl)c(Cl)c3)C2(Cl)Cl)ccc1Cl` [F1272, 2-Chloro-5-((1R,3R)-2,2-dichloro-3-(3,4-dichlorophenyl)cyclopropane-1-carboxamido)-N-(4-(2,2-dichloroacetamido)-2,6-difluorophenyl)benzamide], the pest or weed control at 50 µg/cm2 in experiment [1] (setting [7]) and in experiment [2] (setting [8]) was 50 to 100% in each case.
As for `O=C(NCCCCl)c1c(Cl)ccc(NC(=O)[C@H]2[C@H](c3ccc(F)c(Cl)c3)C2(Cl)Cl)c1F` [F2074, 6-Chloro-N-(3-chloropropyl)-3-((1R,3R)-2,2-dichloro-3-(3-chloro-4-fluorophenyl)cyclopropane-1-carboxamido)-2-fluorobenzamide], the pest or weed control at 50 µg/cm2 in experiment [1] (setting [3]) and in experiment [2] (setting [4]) was 50 to 100% in each case.
With `O=C(Nc1cc(NC(=O)C(F)(F)F)c(F)cc1F)c1cc(NC(=O)[C@H]2[C@H](c3cc(Cl)cc(Cl)c3)C2(Cl)Cl)cc(F)c1Cl` [F1409, 2-Chloro-5-((1R,3R)-2,2-dichloro-3-(3,5-dichlorophenyl)cyclopropane-1-carboxamido)-N-(2,4-difluoro-5-(2,2,2-trifluoroacetamido)phenyl)-3-fluorobenzamide], the pest or weed control at 50 µg/cm2 in experiment [1] (setting [5]) and in experiment [2] (setting [6]) was 50 to 100% each time.
As for `Cc1cc(C2C(C(=O)Nc3ccc(Cl)c(C(=O)Nc4ccc(F)c(N)c4F)c3)C2(Cl)Cl)cc(C(F)(F)F)c1F` (stereo not drawn) [F1069, cis-N-(3-Amino-2,4-difluorophenyl)-2-chloro-5-((cis)-2,2-dichloro-3-(4-fluoro-3-methyl-5-(trifluoromethyl)phenyl)cyclopropane-1-carboxamido)benzamide], the pest or weed control at 50 µg/cm2 in experiment [1] (setting [7]) and in experiment [2] (setting [8]) was 50 to 100% throughout.
